Molecules are shown by their SMILES.

The target in the assay is (Homo sapiens, UniProt P43220). Nature of the assay: h-GLP-1 activity assay (cAMP HTRF, HEK293 cells with stable expression of human GLP-1). The class given is cell-based. The settings on record: relative EC50, 10 nM human GLP-1 set as 100% response, 30 min at 37° C. The method, boiled down: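 HEK293 cells stably expressing human GLP-1 receptor construct exposed to compound 30 min at 37 °C in buffer with 0.1% BSA and 0.5 mM IBMX; cAMP measured by HTRF against a cAMP standard curve. 10 nM human GLP-1 set as 100%; relative EC50 from 4-parameter fit.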
Sequence of (Homo sapiens, UniProt P43220) (P43220 24-463): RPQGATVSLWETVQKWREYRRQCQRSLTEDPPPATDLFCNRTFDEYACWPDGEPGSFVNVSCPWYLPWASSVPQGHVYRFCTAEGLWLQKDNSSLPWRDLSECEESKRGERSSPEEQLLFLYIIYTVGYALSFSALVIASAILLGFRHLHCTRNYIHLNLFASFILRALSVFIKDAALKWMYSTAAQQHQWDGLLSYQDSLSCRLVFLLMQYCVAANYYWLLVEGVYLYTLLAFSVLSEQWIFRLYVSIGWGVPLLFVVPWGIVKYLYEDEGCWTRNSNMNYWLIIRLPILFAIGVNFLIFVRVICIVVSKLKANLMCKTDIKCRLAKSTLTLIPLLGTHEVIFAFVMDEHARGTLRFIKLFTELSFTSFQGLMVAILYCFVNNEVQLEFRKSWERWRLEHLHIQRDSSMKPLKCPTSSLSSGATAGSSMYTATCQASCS

On to `COCc1ccc(-n2ccn(-c3c4c(nn3-c3cc(C)c(F)c(C)c3)CCN(C(=O)c3cc5cc(C6CCOCC6)ccc5n3-c3ccccc3C(=O)O)[C@H]4C)c2=O)cc1` [Compound 57, (S)-2-(2-(2-(4-fluoro-3,5-dimethylphenyl)-3-(3-(4-(methoxymethyl)phenyl)-2-oxo-2,3-dihydro-1H-imidazol-1-yl)-4-methyl-4,5,6,7-tetrahydro-2H-pyrazolo[4,3-c]pyridine-5-carbonyl)-5-(tetrahydro-2H-pyran-4-yl)-1H-indol-1-yl)benzoic acid], for which the EC50 is above 100 nM.

On to `C[C@@H]1c2c(-n3ccn(-c4ccc5c(cnn5C)c4F)c3=O)c(-c3ccc(F)cc3)nn2CCN1C(=O)c1cc2cc([C@H]3CCOC(C)(C)C3)ccc2n1C1(c2noc(=O)[nH]2)CC1` (single isomer, unassigned) [Compound 32], for which the EC50 was above 100 nM.

In the case of `C[C@H]1c2c(-n3ccn(-c4ccc5c(cnn5C)c4F)c3=O)c(-c3cc(Cl)c(F)c(Cl)c3)nn2CCN1C(=O)c1cc2cc([C@@H]3CCOC(C)(C)C3)ccc2n1C1(c2noc(=O)[nH]2)CC1` (single isomer, unassigned) [Compound 52], the EC50 was above 100 nM.

`Cc1cc(-c2ccc3c(c2)cc(C(=O)N2CCn4nc(-c5ccc(F)cc5)c(-n5ccn(-c6ccc7c(cnn7C)c6F)c5=O)c4[C@@H]2C)n3C2(c3noc(=O)[nH]3)CC2)ccn1` (single isomer, unassigned) [Compound 7]: the EC50 is below 20 nM.

`COc1ccc(-c2nn3c(c2-n2ccn(-c4ccc5c(cnn5C)c4F)c2=O)C(C)N(C(=O)c2cc4cc([C@@H]5CCOC(C)(C)C5)ccc4n2C2(c4noc(=O)[nH]4)CC2)CC3)cc1` (single isomer, unassigned) [Compound 28] gave an EC50 of 20 to 100 nM.

`C[C@H]1c2c(nn(-c3ccc(F)c(C4CC4)c3)c2-n2ccn(-c3ccc4c(cnn4C)c3F)c2=O)CCN1C(=O)c1cc2cc([C@H]3CCOC(C)(C)C3)cnn2c1C1(c2noc(=O)[nH]2)CC1` (single isomer, unassigned) [Compound 99] had an EC50 below 20 nM.

`Cc1cc(-n2nc3c(c2-n2ccn(-c4ccc5c(cnn5C)c4F)c2=O)[C@H](C)N(C(=O)c2cc4cc(C5CCOC(C)(C)C5)ccc4n2-c2cccc(-c4noc(=O)[nH]4)c2)CC3)cc(C)c1F` (mixture of isomers) [Compound 30, 3-(3-(5-(2,2-dimethyltetrahydro-2H-pyran-4-yl)-2-((S)-3-(3-(4-fluoro-1-methyl-1H-indazol-5-yl)-2-oxo-2,3-dihydro-1H-imidazol-1-yl)-2-(4-fluoro-3,5-dimethylphenyl)-4-methyl-4,5,6,7-tetrahydro-2H-pyrazolo[4,3-c]pyridine-5-carbonyl)-1H-indol-1-yl)phenyl)-1,2,4-oxadiazol-5(4H)-one] returned an EC50 of 20 to 100 nM.

Consider `Cc1cc(-c2nn3c(c2-n2ccn(-c4ccc5c(cnn5C)c4F)c2=O)[C@@H](C)N(C(=O)c2cn4cc([C@@H]5CCOC(C)(C)C5)ccc4c2C2(c4noc(=O)[nH]4)CC2)CC3)cc(C)c1F` (single isomer, unassigned) [Compound 69], for which the EC50 is below 20 nM.

Compound `Cc1cc(-n2nc3c(c2-n2ccn(-c4ccc5c(cnn5C)c4F)c2=O)CN(C(=O)c2cc4cc(C5CCOCC5)ccc4n2-c2ccccc2-c2noc(=O)[nH]2)CC3)cc(C)c1F` [Compound 37, 3-(2-(2-(3-(3-(4-fluoro-1-methyl-1H-indazol-5-yl)-2-oxo-2,3-dihydro-1H-imidazol-1-yl)-2-(4-fluoro-3,5-dimethylphenyl)-4,5,6,7-tetrahydro-2H-pyrazolo[4,3-c]pyridine-5-carbonyl)-5-(tetrahydro-2H-pyran-4-yl)-1H-indol-1-yl)phenyl)-1,2,4-oxadiazol-5(4H)-one] registered an EC50 above 100 nM.

Compound `Cc1cc(-c2ccc3c(c2)cc(C(=O)N2CCn4nc(-c5ccc(F)cc5)c(-n5ccn(-c6ccc7c(cnn7C)c6F)c5=O)c4C2)n3Cc2noc(=O)[nH]2)ccn1` [Compound 58, 3-((2-(3-(3-(4-fluoro-1-methyl-1H-indazol-5-yl)-2-oxo-2,3-dihydro-1H-imidazol-1-yl)-2-(4-fluorophenyl)-4,5,6,7-tetrahydropyrazolo[1,5-a]pyrazine-5-carbonyl)-5-(2-methylpyridin-4-yl)-1H-indol-1-yl)methyl)-1,2,4-oxadiazol-5(4H)-one] displayed an EC50 below 20 nM.

`C[C@H]1c2c(nn(-c3ccc(F)c(C4CC4)c3)c2-n2ccn(-c3ccc4c(cnn4C)c3F)c2=O)CCN1C(=O)c1cc2cc([C@@H]3CCOC(C)(C)C3)cnn2c1C1(c2noc(=O)[nH]2)CC1` (single isomer, unassigned) [Compound 100] yielded an EC50 of 20 to 100 nM.

`C[C@H]1c2c(nn(C3CCC(F)(F)CC3)c2-n2ccn(-c3ccc4c(cnn4C)c3F)c2=O)CCN1C(=O)c1cc2cc([C@H]3CCOC(C)(C)C3)ccc2n1C1(c2noc(=O)[nH]2)CC1` (single isomer, unassigned) [Compound 43] displayed an EC50 above 100 nM.

In turn, `Cc1cc(-n2nc3c(c2-n2ccn(-c4ccc5c(cnn5C)c4F)c2=O)[C@H](C)N(C(=O)c2cc4cc([C@H]5CCOC(C)(C)C5)ccc4n2Cc2cnc(O)s2)CC3)cc(C)c1F` (single isomer, unassigned) [Compound 45] yielded an EC50 above 100 nM.

With `C[C@H]1c2c(nn(-c3ccc(F)c(F)c3)c2-n2ccn(-c3ccc4c(cnn4C)c3F)c2=O)CCN1C(=O)c1cc2cc([C@@H]3CCOC(C)(C)C3)ccn2c1C1(c2noc(=O)[nH]2)CC1` (single isomer, unassigned) [Compound 78], the EC50 was below 20 nM.

For the compound `C[C@H]1c2c(nn(-c3ccc(F)c(C4CC4)c3)c2-n2ccn(-c3ccc4c(cnn4C)c3F)c2=O)CCN1C(=O)c1cn2cc([C@@H]3CCOC(C)(C)C3)cc(F)c2c1C1(c2noc(=O)[nH]2)CC1` (single isomer, unassigned) [Compound 92], the EC50 is below 20 nM.

In turn, `C[C@H]1c2c(nn(-c3ccc(F)c(C4CC4)c3)c2-n2ccn(-c3ccc4c(cnn4C)c3F)c2=O)CCN1C(=O)c1cc2nc([C@H]3CCOC(C)(C)C3)ccn2c1C1(c2noc(=O)[nH]2)CC1` (single isomer, unassigned) [Compound 101] had an EC50 above 100 nM.

Turning to `Cc1cc(-n2nc3c(c2-n2ccn(-c4ccc5c(cnn5C)c4F)c2=O)[C@H](C)N(C(=O)c2cc4cc([C@H]5CCOC(C)(C)C5)ccn4c2C2(c4noc(=O)[nH]4)CC2)CC3)cc(C)c1F` (single isomer, unassigned) [Compound 9], the concentration for a half-maximal effect (EC50) lay in the range of 20 to 100 nM.

On to `Cc1cc(-n2nc3c(c2-n2ccn(-c4ccc5c(cnn5C)c4F)c2=O)CN(C(=O)c2cc4cc(C5CCOC(C)(C)C5)ccc4n2Cc2cc(O)ns2)CC3)cc(C)c1F` (racemic) [Compound 42, 1-(5-(5-(2,2-dimethyltetrahydro-2H-pyran-4-yl)-1-((3-hydroxyisothiazol-5-yl)methyl)-1H-indole-2-carbonyl)-2-(4-fluoro-3,5-dimethylphenyl)-4,5,6,7-tetrahydro-2H-pyrazolo[4,3-c]pyridin-3-yl)-3-(4-fluoro-1-methyl-1H-indazol-5-yl)-1,3-dihydro-2H-imidazol-2-one], for which the EC50 was above 100 nM.

The EC50 is the concentration at which the effect is half-maximal. Low values mean greater potency, high ones weaker potency.

The record behind these values is patent publication US12037339B2, “Substituted imidazoles as GLP-1 receptor agonists” (Eccogene Inc., priority 2020, dated 2024).
